Laboratory results reported in article PMC8880361, “Design, Molecular Docking, Synthesis, Anticancer and Anti-Hyperglycemic Assessments of Thiazolidine-2,4-diones Bearing Sulfonylthiourea Moieties as Potent VEGFR-2 Inhibitors and PPARγ Agonists” (Pharmaceuticals, 2022).

Key:
[1] = system: MCF-7; assay: In vitro cytotoxicity, MTT colorimetric assay; type: cell-based, human; conditions: for IC50: Homo sapiens, MCF7, MTT, mean ± S.D. of triplet separate experiments; for fold higher toxicity in MCF-7 than in normal VERO cells: ratio VERO vs MCF-7
[2] = system: HCT116; assay: In vitro cytotoxicity, MTT colorimetric assay; type: cell-based, human; conditions: for IC50: Homo sapiens, HCT-116, MTT, mean ± S.D. of triplet separate experiments; for fold more toxic in HCT-116 than in normal VERO cells: ratio VERO vs HCT-116
[3] = system: HepG2; assay: In vitro cytotoxicity, MTT colorimetric assay; type: cell-based, human; conditions: for IC50: Homo sapiens, HepG2, MTT, mean ± S.D. of triplet separate experiments; for fold more toxic against HepG2 than normal VERO cells: ratio VERO vs HepG2
[4] = target: VEGFR-2 (Homo sapiens, UniProt P35968); assay: In vitro VEGFR-2 kinase assay (anti-phosphotyrosine antibody, Alpha Screen system); type: biochemical; conditions: mean ± S.D. of triplet separate experiments
[5] = target: T1, PPARγ (Homo sapiens, UniProt P37231); assay: In vitro PPARγ ligand binding assay (Fluorescence Polarization); conditions: concentration required to displace 50% of the titrated ligand; n = 3; read-out: IC50 PPARγ Binding Affinity
T1 sequence (P37231 1-505): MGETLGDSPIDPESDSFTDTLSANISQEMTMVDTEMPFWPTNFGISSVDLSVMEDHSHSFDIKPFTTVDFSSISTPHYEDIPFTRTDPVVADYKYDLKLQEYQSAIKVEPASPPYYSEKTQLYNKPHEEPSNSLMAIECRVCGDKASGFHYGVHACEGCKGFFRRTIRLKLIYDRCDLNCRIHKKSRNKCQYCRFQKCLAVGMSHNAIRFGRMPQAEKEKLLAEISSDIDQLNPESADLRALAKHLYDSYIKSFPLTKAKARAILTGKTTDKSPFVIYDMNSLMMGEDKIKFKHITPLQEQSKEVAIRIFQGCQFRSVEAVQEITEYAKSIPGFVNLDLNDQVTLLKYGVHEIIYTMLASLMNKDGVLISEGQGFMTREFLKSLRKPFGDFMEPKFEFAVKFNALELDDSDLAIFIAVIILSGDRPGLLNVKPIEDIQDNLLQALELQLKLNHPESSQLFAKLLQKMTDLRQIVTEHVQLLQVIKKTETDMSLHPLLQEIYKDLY

[6] = system: isolated pancreatic islets of rats; assay: In vitro insulin secretion assay (sandwich enzyme immunoassay); type: cell-based; conditions: Pancreatic islet; isolated rat pancreatic islets; concentration for 50% of the maximum action; n = 3; read-out: EC50 Insulin Secreting Activity
Procedure: Compounds 5a–c, 6a–c and 7a–c were also assessed to establish their insulin-secretion activities in vitro against isolated pancreatic islets of rats through the quantitative sandwich technique of enzyme immunoassay. Glimiperide was applied as the standard. The findings are described as the EC50 values (Table 4).

[7] = system: VERO normal cell lines; assay: Cytotoxicity against normal cells; type: cell-based; conditions: Chlorocebus sabaeus, mean ± S.D. of triplet separate experiments
Procedure: The cytotoxic effects of the prepared derivatives against the malignant cell lines ranged from 5.77 to 17.65 μM. Derivatives 6a–c and 7a–c were, respectively, 3.41-, 3.83-, 6.93-, 4.99-, 5.45- and 7.74-fold times more toxic against HepG2 than normal VERO cells. Similarly, derivatives 6a-c and 7a-c were, respectively, 2.74-, 2.97-, 6.04-, 3.58-, 3.90- and 11.83-fold more toxic in HCT-116 than in normal VERO cells.

Chain of VEGFR-2 (P35968 20-1356): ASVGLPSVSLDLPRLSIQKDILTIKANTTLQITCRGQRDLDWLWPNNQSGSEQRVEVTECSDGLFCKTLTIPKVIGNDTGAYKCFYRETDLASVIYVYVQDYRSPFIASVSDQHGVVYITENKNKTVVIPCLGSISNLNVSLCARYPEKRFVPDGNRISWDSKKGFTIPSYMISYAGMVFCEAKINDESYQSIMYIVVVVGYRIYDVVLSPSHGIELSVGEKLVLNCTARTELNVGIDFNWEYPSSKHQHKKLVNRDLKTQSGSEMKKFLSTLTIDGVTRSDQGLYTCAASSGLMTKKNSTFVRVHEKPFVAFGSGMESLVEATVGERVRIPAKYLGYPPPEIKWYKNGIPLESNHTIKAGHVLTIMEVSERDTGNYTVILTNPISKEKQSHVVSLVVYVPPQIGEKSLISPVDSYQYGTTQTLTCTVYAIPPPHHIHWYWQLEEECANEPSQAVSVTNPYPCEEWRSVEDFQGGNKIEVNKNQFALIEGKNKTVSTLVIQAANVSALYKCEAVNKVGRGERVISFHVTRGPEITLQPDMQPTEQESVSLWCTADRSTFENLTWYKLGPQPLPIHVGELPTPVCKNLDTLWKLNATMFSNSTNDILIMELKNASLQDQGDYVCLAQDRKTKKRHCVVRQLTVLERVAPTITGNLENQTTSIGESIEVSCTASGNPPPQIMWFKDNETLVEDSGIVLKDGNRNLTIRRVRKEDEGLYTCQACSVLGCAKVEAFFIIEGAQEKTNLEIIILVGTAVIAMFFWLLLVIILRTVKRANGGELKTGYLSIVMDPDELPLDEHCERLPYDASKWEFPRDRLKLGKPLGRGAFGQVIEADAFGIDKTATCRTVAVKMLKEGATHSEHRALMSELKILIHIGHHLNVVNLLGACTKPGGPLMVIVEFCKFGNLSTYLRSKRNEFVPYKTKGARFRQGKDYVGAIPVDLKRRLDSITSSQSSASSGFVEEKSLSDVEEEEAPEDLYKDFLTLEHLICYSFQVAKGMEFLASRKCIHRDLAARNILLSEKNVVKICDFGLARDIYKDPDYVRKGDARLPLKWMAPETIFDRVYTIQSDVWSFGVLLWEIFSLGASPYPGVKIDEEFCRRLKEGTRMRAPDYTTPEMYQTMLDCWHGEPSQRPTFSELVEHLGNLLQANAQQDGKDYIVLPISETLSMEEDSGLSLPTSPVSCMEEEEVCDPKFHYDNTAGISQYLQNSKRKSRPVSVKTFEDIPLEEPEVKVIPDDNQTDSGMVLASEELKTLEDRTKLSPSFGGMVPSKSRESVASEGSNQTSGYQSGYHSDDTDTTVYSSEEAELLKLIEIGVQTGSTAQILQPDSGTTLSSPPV

SMILES: NS(=O)(=O)c1ccc(NC(=O)CN2C(=O)CSC2=O)cc1 [Compound 3, 2-(2,4-Dioxothiazolidin-3-yl)-N-(4-Sulfamoylphenyl)-Acetamide]
- IC50 [1]: 60.2 ± 5.1 µM
- IC50 [2]: 61.5 ± 5.1 µM
- IC50 [3]: 58.6 ± 5.1 µM
- IC50 [4]: 0.93 ± 0.06 µM

SMILES: NS(=O)(=O)c1ccc(NC(=O)CN2C(=O)SC(=Cc3ccccc3)C2=O)cc1 [Compound 4a, 2-(5-Benzylidene-2,4-dioxothiazolidin-3-yl)-N-(4-sulfamoylphenyl)acetamide]
- IC50 [1]: 55 ± 5.1 µM
- IC50 [2]: 55.1 ± 5.1 µM
- IC50 [3]: 52.9 ± 5.1 µM
- melting point: 226 to 228 °C
- IC50 [4]: 0.92 ± 0.06 µM

SMILES: Cc1ccc(C=C2SC(=O)N(CC(=O)Nc3ccc(S(N)(=O)=O)cc3)C2=O)cc1 [Compound 4b, 2-(5-(4-Methylbenzylidene)-2,4-dioxothiazolidin-3-yl)-N-(4-sulfamoylphenyl)acetamide]
- IC50 [1]: 62.4 ± 5.1 µM
- IC50 [2]: 57.9 ± 5.1 µM
- IC50 [3]: 48.6 ± 5.1 µM
- melting point: 240 to 242 °C
- IC50 [4]: 0.89 ± 0.06 µM

SMILES: CCNC(=S)NS(=O)(=O)c1ccc(NC(=O)CN2C(=O)CSC2=O)cc1 [Compound 5a, 2-(2,4-Dioxothiazolidin-3-yl)-N-(4-(N-(ethylcarbamothioyl)sulfamoyl)phenyl)acetamide]
- IC50 [1]: 28.8 ± 2.2 µM
- IC50 [2]: 40.1 ± 2.2 µM
- IC50 [5]: 0.393 µM
- IC50 [3]: 24.5 ± 2.2 µM
- EC50 [6]: 1.2 µM
- IC50 [4]: 0.46 ± 0.05 µM

SMILES: O=C(CN1C(=O)CSC1=O)Nc1ccc(S(=O)(=O)NC(=S)Nc2ccccc2)cc1 [Compound 5b, 2-(2,4-Dioxothiazolidin-3-yl)-N-(4-(N-(phenylcarbamothioyl)sulfamoyl)phenyl)acetamide]
- IC50 [1]: 23.2 ± 2 µM
- IC50 [2]: 25.7 ± 2 µM
- IC50 [5]: 0.377 µM
- IC50 [3]: 22 ± 2 µM
- EC50 [6]: 1.13 µM
- melting point: 262 to 264 °C
- IC50 [4]: 0.44 ± 0.05 µM

SMILES: O=C(CN1C(=O)CSC1=O)Nc1ccc(S(=O)(=O)NC(=S)NC2CCCCC2)cc1 [Compound 5c, N-(4-(N-(Cyclohexylcarbamothioyl)sulfamoyl)phenyl)-2-(2,4-dioxothiazolidin-3-yl)acetamide]
- IC50 [1]: 24.6 ± 2.6 µM
- IC50 [2]: 23.6 ± 2.6 µM
- IC50 [5]: 0.36 µM
- IC50 [3]: 20.8 ± 2.6 µM
- EC50 [6]: 1 µM
- melting point: 267 to 269 °C
- IC50 [4]: 0.44 ± 0.05 µM

SMILES: CCNC(=S)NS(=O)(=O)c1ccc(NC(=O)CN2C(=O)SC(=Cc3ccccc3)C2=O)cc1 [Compound 6a, 2-(5-Benzylidene-2,4-dioxothiazolidin-3-yl)-N-(4-(N-(ethylcarbamothioyl)sulfamoyl)phenyl)acetamide]
- IC50 [1]: 16.5 ± 2.3 µM
- fold higher toxicity in MCF-7 than in normal VERO cells [1]: 2.93 fold
- IC50 [2]: 17.7 ± 2.3 µM
- fold more toxic in HCT-116 than in normal VERO cells [2]: 2.74 fold
- IC50 [5]: 0.323 µM
- IC50 [3]: 14.2 ± 2.3 µM
- fold more toxic against HepG2 than normal VERO cells [3]: 3.41 fold
- IC50 [7]: 48.31 ± 0.22 µM
- EC50 [6]: 0.87 µM
- melting point: 282 to 284 °C
- IC50 [4]: 0.17 ± 0.02 µM

SMILES: O=C(CN1C(=O)SC(=Cc2ccccc2)C1=O)Nc1ccc(S(=O)(=O)NC(=S)Nc2ccccc2)cc1 [Compound 6b, 2-(5-Benzylidene-2,4-dioxothiazolidin-3-yl)-N-(4-(N-(phenylcarbamothioyl)sulfamoyl)phenyl)-acetamide]
- IC50 [1]: 13 ± 1.2 µM
- fold higher toxicity in MCF-7 than in normal VERO cells [1]: 3.16 fold
- IC50 [2]: 13.8 ± 1.2 µM
- fold more toxic in HCT-116 than in normal VERO cells [2]: 2.97 fold
- IC50 [5]: 0.308 µM
- IC50 [3]: 10.7 ± 1.6 µM
- fold more toxic against HepG2 than normal VERO cells [3]: 3.83 fold
- IC50 [7]: 40.88 ± 0.22 µM
- EC50 [6]: 0.78 µM
- melting point: 286 to 288 °C
- IC50 [4]: 0.15 ± 0.02 µM

SMILES: O=C(CN1C(=O)SC(=Cc2ccccc2)C1=O)Nc1ccc(S(=O)(=O)NC(=S)NC2CCCCC2)cc1 [Compound 6c, 2-(5-Benzylidene-2,4-dioxothiazolidin-3-yl)-N-(4-(N-(cyclohexylcarbamothioyl)sulfamoyl)phenyl)-acetamide]
- IC50 [1]: 8.15 ± 1.6 µM
- IC50 [2]: 7.11 ± 1.7 µM
- fold more toxic in HCT-116 than in normal VERO cells [2]: 6.04 fold
- IC50 [5]: 0.3 µM
- IC50 [3]: 8.99 ± 1.2 µM
- fold more toxic against HepG2 than normal VERO cells [3]: 6.93 fold
- IC50 [7]: 49.26 ± 0.22 µM
- EC50 [6]: 0.7 µM
- IC50 [4]: 0.08 ± 0.02 µM

SMILES: CCNC(=S)NS(=O)(=O)c1ccc(NC(=O)CN2C(=O)SC(=Cc3ccc(C)cc3)C2=O)cc1 [Compound 7a, N-(4-(N-(Ethylcarbamothioyl)sulfamoyl)phenyl)-2-(5-(4-methylbenzylidene)-2,4-dioxothiazolidin-3-yl)acetamide]
- IC50 [1]: 16.7 ± 1.5 µM
- fold higher toxicity in MCF-7 than in normal VERO cells [1]: 3.61 fold
- IC50 [2]: 16.8 ± 1.5 µM
- fold more toxic in HCT-116 than in normal VERO cells [2]: 3.58 fold
- IC50 [5]: 0.32 µM
- IC50 [3]: 12.1 ± 1.5 µM
- fold more toxic against HepG2 than normal VERO cells [3]: 4.99 fold
- IC50 [7]: 60.12 ± 0.18 µM
- EC50 [6]: 0.81 µM
- melting point: 285 to 287 °C
- IC50 [4]: 0.14 ± 0.02 µM

SMILES: Cc1ccc(C=C2SC(=O)N(CC(=O)Nc3ccc(S(=O)(=O)NC(=S)Nc4ccccc4)cc3)C2=O)cc1 [Compound 7b, 2-(5-(4-Methylbenzylidene)-2,4-dioxothiazolidin-3-yl)-N-(4-(N-(phenylcarbamothioyl)sulfamoyl)-phenyl)acetamide]
- IC50 [1]: 12.9 ± 1.7 µM
- fold higher toxicity in MCF-7 than in normal VERO cells [1]: 4.08 fold
- IC50 [2]: 13.5 ± 1.6 µM
- fold more toxic in HCT-116 than in normal VERO cells [2]: 3.90 fold
- IC50 [5]: 0.305 µM
- IC50 [3]: 9.65 ± 1.7 µM
- fold more toxic against HepG2 than normal VERO cells [3]: 5.45 fold
- IC50 [7]: 52.61 ± 0.22 µM
- EC50 [6]: 0.75 µM
- IC50 [4]: 0.11 ± 0.02 µM

SMILES: Cc1ccc(C=C2SC(=O)N(CC(=O)Nc3ccc(S(=O)(=O)NC(=S)NC4CCCCC4)cc3)C2=O)cc1 [Compound 7c, N-(4-(N-(Cyclohexylcarbamothioyl)sulfamoyl)phenyl)-2-(5-(4-methylbenzylidene)-2,4-dioxothiazolidin-3-yl)acetamide]
- IC50 [1]: 7.78 ± 1.9 µM
- fold higher toxicity in MCF-7 than in normal VERO cells [1]: 8.77 fold
- IC50 [2]: 5.77 ± 1.9 µM
- fold more toxic in HCT-116 than in normal VERO cells [2]: 11.83 fold
- IC50 [5]: 0.296 µM
- IC50 [3]: 8.82 ± 1.9 µM
- fold more toxic against HepG2 than normal VERO cells [3]: 7.74 fold
- IC50 [7]: 68.25 ± 0.21 µM
- EC50 [6]: 0.7 µM
- IC50 [4]: 0.08 ± 0.02 µM

SMILES: COc1cccc2c1C(=O)c1c(O)c3c(c(O)c1C2=O)C[C@@](O)(C(=O)CO)C[C@@H]3O[C@H]1C[C@H](N)[C@H](O)[C@H](C)O1 [Doxorubicin, reference compound]
- IC50 [1]: 6.75 ± 0.4 µM
- IC50 [3]: 7.94 ± 0.6 µM

SMILES: CCC1=C(C)CN(C(=O)NCCc2ccc(S(=O)(=O)NC(=O)N[C@H]3CC[C@H](C)CC3)cc2)C1=O [Glimiperide, reference compound]
- EC50 [6]: 0.73 µM
